Some results are limits rather than exact numbers.

Test system in one data set: not listed separately
Nature of the data set: Intrinsic clearance in mouse microsome. Format: ADME. As to conditions: microsomes.
A word on the microsomal CLint: it is a measure of how fast metabolising enzymes remove a compound, apart from limits set by blood flow. `O=C1NCC(c2ccc(F)cc2)C12CCN(C1CCCCC1(O)c1cccc(F)c1)CC2` (single isomer, unassigned; diastereomer 2) yielded a microsomal CLint of 16 µL/min/mg. Consider `O=C1NCC(c2ccc(F)cc2)C12CCN(C1CCCCC1(O)c1ccccc1F)CC2` (single isomer, unassigned; diastereomer 4), for which the microsomal CLint amounted to 39 µL/min/mg.

Test system in the next data set: not listed separately
Nature of the data set: Intrinsic clearance in human microsome. The data set is classed as ADME. Particulars: microsomes.
Take `O=C1NCC(c2ccc(F)cc2)C12CCN(C1CCCCC1(O)c1cccc(F)c1)CC2` (single isomer, unassigned; diastereomer 2): the microsomal CLint was determined as 11 µL/min/mg. The compound `O=C1NCC(c2ccc(F)cc2)C12CCN(C1CCCCC1(O)c1ccccc1F)CC2` (single isomer, unassigned; diastereomer 4) gave a microsomal CLint of 28 µL/min/mg.

The target in another data set is T1, Sodium- and chloride-dependent glycine transporter 1 (Homo sapiens, UniProt P48067).
T1 sequence (P48067 whole entry): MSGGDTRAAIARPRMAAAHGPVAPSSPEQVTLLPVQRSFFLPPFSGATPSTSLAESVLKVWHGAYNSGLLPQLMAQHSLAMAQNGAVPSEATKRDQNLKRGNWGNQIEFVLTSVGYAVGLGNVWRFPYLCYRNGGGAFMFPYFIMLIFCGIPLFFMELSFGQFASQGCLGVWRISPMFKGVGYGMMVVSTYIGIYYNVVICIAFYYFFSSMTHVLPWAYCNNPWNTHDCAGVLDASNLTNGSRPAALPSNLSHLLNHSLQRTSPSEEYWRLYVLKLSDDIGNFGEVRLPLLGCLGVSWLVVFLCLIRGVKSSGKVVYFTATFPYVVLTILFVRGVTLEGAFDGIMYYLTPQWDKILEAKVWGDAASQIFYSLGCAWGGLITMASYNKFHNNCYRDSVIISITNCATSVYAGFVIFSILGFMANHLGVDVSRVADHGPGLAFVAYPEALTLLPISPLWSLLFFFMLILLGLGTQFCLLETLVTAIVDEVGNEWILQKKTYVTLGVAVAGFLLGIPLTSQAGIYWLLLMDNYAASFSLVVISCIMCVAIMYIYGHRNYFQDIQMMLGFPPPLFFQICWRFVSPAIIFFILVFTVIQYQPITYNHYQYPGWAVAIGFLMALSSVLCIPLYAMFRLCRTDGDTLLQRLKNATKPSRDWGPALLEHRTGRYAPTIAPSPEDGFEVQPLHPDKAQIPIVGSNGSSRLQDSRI
Nature of the data set: Inhibition of [3H]glycine uptake at human GlyT1 by radiometric assay.
Details: not given
Usually EC50 stands for the midpoint of the concentration-response curve. In turn, `O=C1NCN(c2ccccc2)C12CCN(C1CCCCC1(O)c1ccccc1)CC2` (stereo not given) had an EC50 of 44 nM. With `COc1ccc(C2(O)CCCCC2N2CCC3(CC2)C(=O)NCC3c2ccccc2)cc1` (stereo not given), the response was half-maximal at 4480 nM (EC50). Still for that read-out and setting: as for `O=C1NCC(c2ccc(F)cc2)C12CCN(C1CCCCC1(O)c1ccccc1OC(F)(F)F)CC2` (stereo not given), the figure is 1390 nM; as for `CS(=O)(=O)c1ccc(C2(O)CCCCC2N2CCC3(CC2)C(=O)NCC3c2ccc(F)cc2)cc1` (stereo not given), 18600 nM; as for `O=C1NCC(c2ccc(F)cc2)C12CCN(C1CCCCC1(O)c1ccc(C(F)(F)F)cc1)CC2` (stereo not given), 1310 nM. Same read-out and setting: then `COc1cccc(C2(O)CCCCC2N2CCC3(CC2)C(=O)NCC3c2ccccc2)c1` (stereo not given), with greater than 30000 nM. Consider `N#Cc1ccc(C2(O)CCCCC2N2CCC3(CC2)C(=O)NCC3c2ccc(F)cc2)cc1` (mixture of isomers), for which a half-maximal response (EC50) required 1950 nM. `Cc1ccc(C2(O)CCCCC2N2CCC3(CC2)C(=O)NCC3c2ccc(F)cc2)cc1` (single isomer, unassigned; diastereomer 1) yielded a 50% effective concentration (EC50) of 420 nM.

For `COc1ccc(C2(O)CCCCC2N2CCC3(CC2)C(=O)NCC3c2ccc(F)cc2)cc1` (single isomer, unassigned; diastereomer 1), the EC50 was determined as 3300 nM. `O=C1NCC(c2ccc(F)cc2)C12CCN(C1CCCCC1(O)c1ccccc1F)CC2` (single isomer, unassigned; diastereomer 1) came in with an EC50 of 596 nM.

`Cc1cccc(C2(O)CCCCC2N2CCC3(CC2)C(=O)NCC3c2ccc(F)cc2)c1` (single isomer, unassigned; diastereomer 1) returned an EC50 of 2640 nM.

As to `Cc1ccccc1C1(O)CCCCC1N1CCC2(CC1)C(=O)NCC2c1ccc(F)cc1` (single isomer, unassigned; diastereomer 1), the EC50 is 596 nM.

Compound `O=C1NCC(c2ccc(F)cc2)C12CCN(C1CCCCC1(O)c1cccc(F)c1)CC2` (single isomer, unassigned; diastereomer 1) showed an EC50 of 95 nM.

`O=C1NCC(c2ccccc2)C12CCN(C1CCCCC1(O)c1cccc(F)c1)CC2` (single isomer, unassigned; diastereomer 1) had an EC50 of 158 nM. The same measure, in the same setting: then `CC(C)(C)c1ccc(C2(O)CCCCC2N2CCC3(CC2)C(=O)NCC3c2ccc(F)cc2)cc1` (single isomer, unassigned; diastereomer 1), with greater than 30000 nM; and `O=C1NCC(c2ccc(F)cc2)C12CCN(C1CCCCC1(O)c1cccc(Cl)c1)CC2` (single isomer, unassigned; diastereomer 1), with 6250 nM; and `N#Cc1ccc(C2(O)CCCCC2N2CCC3(CC2)C(=O)NCC3c2ccc(F)cc2)cc1` (single isomer, unassigned; diastereomer 2), with 11300 nM.

Compound `Cc1ccc(C2(O)CCCCC2N2CCC3(CC2)C(=O)NCC3c2ccc(F)cc2)cc1` (single isomer, unassigned; diastereomer 2) returned an EC50 greater than 30000 nM. `COc1ccc(C2(O)CCCCC2N2CCC3(CC2)C(=O)NCC3c2ccc(F)cc2)cc1` (single isomer, unassigned; diastereomer 2): a half-maximal effect (EC50) was put at 1180 nM. The same measure, in the same setting: then `O=C1NCC(c2ccc(F)cc2)C12CCN(C1CCCCC1(O)c1ccccc1F)CC2` (single isomer, unassigned; diastereomer 2), with 110 nM; and `O=C1NCC(c2ccccc2)C12CCN(C1CCCCC1(O)c1ccc(F)cc1)CC2` (single isomer, unassigned; diastereomer 2), with 825 nM; and `Cc1cccc(C2(O)CCCCC2N2CCC3(CC2)C(=O)NCC3c2ccc(F)cc2)c1` (single isomer, unassigned; diastereomer 2), with 10700 nM. Turning to `COc1cccc(C2(O)CCCCC2N2CCC3(CC2)C(=O)NCC3c2ccc(F)cc2)c1` (single isomer, unassigned; diastereomer 2), the EC50 stood at 2600 nM. On the same count and under the same terms, as for `O=C1NCC(c2ccc(F)cc2)C12CCN(C1CCCCC1(O)c1cccc(F)c1)CC2` (single isomer, unassigned; diastereomer 2), the figure is 77 nM. The same measure, in the same setting: then `O=C1NCC(c2ccccc2)C12CCN(C1CCCCC1(O)c1cccc(F)c1)CC2` (single isomer, unassigned; diastereomer 2), with 2600 nM; and `CC(C)(C)c1ccc(C2(O)CCCCC2N2CCC3(CC2)C(=O)NCC3c2ccc(F)cc2)cc1` (single isomer, unassigned; diastereomer 2), with greater than 30000 nM. On the same count and under the same terms, then `O=C1NCC(c2ccc(F)cc2)C12CCN(C1CCCCC1(O)c1cccc(Cl)c1)CC2` (single isomer, unassigned; diastereomer 2), with 2340 nM; and `Cc1ccc(C2(O)CCCCC2N2CCC3(CC2)C(=O)NCC3c2ccc(F)cc2)cc1` (single isomer, unassigned; diastereomer 3), with 437 nM. `COc1ccc(C2(O)CCCCC2N2CCC3(CC2)C(=O)NCC3c2ccc(F)cc2)cc1` (single isomer, unassigned; diastereomer 3) registered an EC50 of 1130 nM. In turn, `COc1cccc(C2(O)CCCCC2N2CCC3(CC2)C(=O)NCC3c2ccc(F)cc2)c1` (single isomer, unassigned; diastereomer 3) showed an EC50 of 127 nM. Take `Cc1ccccc1C1(O)CCCCC1N1CCC2(CC1)C(=O)NCC2c1ccc(F)cc1` (single isomer, unassigned; diastereomer 3): the 50% effective concentration (EC50) turned out to be 17700 nM. In the case of `O=C1NCC(c2ccccc2)C12CCN(C1CCCCC1(O)c1cccc(F)c1)CC2` (single isomer, unassigned; diastereomer 3), the EC50 amounted to 127 nM.

Compound `Cc1ccc(C2(O)CCCCC2N2CCC3(CC2)C(=O)NCC3c2ccc(F)cc2)cc1` (single isomer, unassigned; diastereomer 4) had an EC50 of 132 nM. Still for that read-out and setting: as for `O=C1NCC(c2ccc(F)cc2)C12CCN(C1CCCCC1(O)c1ccccc1F)CC2` (single isomer, unassigned; diastereomer 4), the figure is 69 nM. Regarding `COc1cccc(C2(O)CCCCC2N2CCC3(CC2)C(=O)NCC3c2ccc(F)cc2)c1` (single isomer, unassigned; diastereomer 4), the EC50 came to 5300 nM. Still for that read-out and setting: as for `Cc1ccccc1C1(O)CCCCC1N1CCC2(CC1)C(=O)NCC2c1ccc(F)cc1` (single isomer, unassigned; diastereomer 4), the figure is 69 nM; as for `O=C1NCC(c2ccc(F)cc2)C12CCN(C1CCCCC1(O)c1cccc(F)c1)CC2` (single isomer, unassigned; diastereomer 4), 646 nM; as for `O=C1NCC(c2ccccc2)C12CCN(C1CCCCC1(O)c1cccc(F)c1)CC2` (single isomer, unassigned; diastereomer 4), 5300 nM.

With `COc1ccc(C2(O)CCCCC2N2CCC3(CC2)C(=O)NCC3c2ccc(F)cc2)cc1` (stereo in doubt), the response was half-maximal at 158 nM (EC50). Compound `O=C1NCC(c2ccc(F)cc2)C12CCN(C1CCCCC1(O)c1ccccc1F)CC2` (stereo in doubt) returned an EC50 of 1770 nM. The same measure, in the same setting: then `COc1cccc(C2(O)CCCCC2N2CCC3(CC2)C(=O)NCC3c2ccc(F)cc2)c1` (stereo in doubt), with 158 nM. The compound `Cc1ccccc1C1(O)CCCCC1N1CCC2(CC1)C(=O)NCC2c1ccc(F)cc1` (stereo in doubt) gave an EC50 of 110 nM. The same measure, in the same setting: then `O=C1NCC(c2ccc(F)cc2)C12CCN(C1CCCCC1(O)c1cccc(Cl)c1)CC2` (stereo in doubt; form 1), with 118 nM. On the same count and under the same terms, then `O=C1NCC(c2ccc(F)cc2)C12CCN(C1CCCCC1(O)c1cccc(Cl)c1)CC2` (stereo in doubt; form 2), with 73 nM.

The next data set has as its target T2, Sodium- and chloride-dependent glycine transporter 2 (Homo sapiens, UniProt Q9Y345).
T2 sequence (Q9Y345 whole entry): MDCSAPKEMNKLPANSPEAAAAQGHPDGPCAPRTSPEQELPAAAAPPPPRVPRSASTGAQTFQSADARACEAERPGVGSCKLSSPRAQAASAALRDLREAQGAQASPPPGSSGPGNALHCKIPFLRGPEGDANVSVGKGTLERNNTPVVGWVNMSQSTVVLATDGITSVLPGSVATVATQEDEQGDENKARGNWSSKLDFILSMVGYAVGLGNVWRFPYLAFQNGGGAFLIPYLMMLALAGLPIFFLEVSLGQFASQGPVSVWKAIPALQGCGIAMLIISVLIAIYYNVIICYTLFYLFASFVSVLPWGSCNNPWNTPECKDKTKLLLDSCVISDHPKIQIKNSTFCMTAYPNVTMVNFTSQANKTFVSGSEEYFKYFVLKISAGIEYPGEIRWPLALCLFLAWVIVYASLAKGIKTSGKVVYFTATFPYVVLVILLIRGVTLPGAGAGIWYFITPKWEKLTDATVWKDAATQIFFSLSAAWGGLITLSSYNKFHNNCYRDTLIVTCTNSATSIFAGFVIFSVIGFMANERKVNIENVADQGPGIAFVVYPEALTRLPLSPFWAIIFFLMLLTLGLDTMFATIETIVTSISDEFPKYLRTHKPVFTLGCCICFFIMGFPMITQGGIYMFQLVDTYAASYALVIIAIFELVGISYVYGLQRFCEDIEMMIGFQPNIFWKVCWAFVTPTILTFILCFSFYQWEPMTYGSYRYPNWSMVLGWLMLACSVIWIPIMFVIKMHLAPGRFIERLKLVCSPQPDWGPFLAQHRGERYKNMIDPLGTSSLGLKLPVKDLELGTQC
Nature of the data set: Inhibition of [3H]glycine uptake at human GlyT2 by radiometric assay.
Details: not given
`O=C1NCN(c2ccccc2)C12CCN(C1CCCCC1(O)c1ccccc1)CC2` (stereo not given): it took 72000 nM to reach a half-maximal effect (EC50).

A further data set deals with Nociceptin receptor (Homo sapiens, UniProt P41146). Description: Displacement of [3H]NOP from human NOP receptors expressed in HEK293 cells. The data set is classed as cell-based. As to conditions: hek293.
Chain of Nociceptin receptor (P41146 whole entry): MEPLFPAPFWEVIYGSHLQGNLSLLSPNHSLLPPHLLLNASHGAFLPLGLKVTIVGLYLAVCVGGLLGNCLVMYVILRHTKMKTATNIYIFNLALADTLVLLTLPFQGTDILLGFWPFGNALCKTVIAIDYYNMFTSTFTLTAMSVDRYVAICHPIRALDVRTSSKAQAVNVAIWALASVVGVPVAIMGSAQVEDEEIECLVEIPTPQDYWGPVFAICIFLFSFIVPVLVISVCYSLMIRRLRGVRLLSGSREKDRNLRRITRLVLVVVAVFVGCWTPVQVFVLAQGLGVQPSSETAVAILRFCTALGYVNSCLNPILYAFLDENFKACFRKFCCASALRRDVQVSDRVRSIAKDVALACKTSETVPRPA
For orientation: IC50 means the concentration that gives 50% inhibition. A lower IC50 goes with higher potency. In the case of `O=C1NCC(c2ccccc2)C12CCN(C1CCCCC1(O)c1ccc(F)cc1)CC2` (single isomer, unassigned; diastereomer 2), the IC50 was greater than 10000 nM.

(Values after ChEMBL document CHEMBL1138974 (Bioorg Med Chem Lett, 2006).)
